SMILES strings stand for the structures.

The experiment deals with T1, hMrgpMRGPRX2 (Homo sapiens, UniProt Q96LB1).
T1 construct: expressed in transfected cells
T1 sequence (Q96LB1 1-330): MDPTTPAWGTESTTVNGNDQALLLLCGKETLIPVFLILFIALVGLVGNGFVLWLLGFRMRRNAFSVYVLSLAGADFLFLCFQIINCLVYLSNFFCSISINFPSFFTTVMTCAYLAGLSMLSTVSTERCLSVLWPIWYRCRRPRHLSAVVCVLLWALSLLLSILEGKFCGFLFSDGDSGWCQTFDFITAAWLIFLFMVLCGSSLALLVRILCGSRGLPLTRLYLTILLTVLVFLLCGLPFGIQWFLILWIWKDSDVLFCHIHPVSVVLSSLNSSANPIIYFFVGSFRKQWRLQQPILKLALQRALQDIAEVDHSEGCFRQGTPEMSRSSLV
Put plainly: FLIPR intracellular calcium mobilization, antagonist activity in recombinant hMrgpMRGPRX2 expressing cells. The class given is cell-based. The settings on record: read-out: Human MrgprX2 Antagonist pIC50 (converted). Summed up: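 Antagonist activity was read as inhibition of intracellular calcium mobilization (FLIPR) in recombinant cells expressing human MrgprX2. Potency was also checked in LAD-2 human mast cells with endogenous receptor, and orthologue activity in cells expressing mouse MrgprB2, mouse MrgprA1, and gerbil, Chinese hamster and cynomolgus orthologues.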
For orientation: Calcium flux is commonly read through the fluorescence of an indicator in the cells.
As for `CC(C)C(=O)Nc1ccc(Cc2ccccc2)cn1` [Compound E181], the IC50 is 6.31 µM.
For `CC1(C)CC1C(=O)Nc1ccc(-c2cc(F)ccc2F)cn1` (centres unmarked) [Compound E182], the IC50 was 0.0251 µM.
Turning to `CC1(C)CC1C(=O)Nc1ccc(-c2cccc(F)c2F)cn1` (centres unmarked) [Compound E183], the IC50 was 0.0195 µM.
The same measure for `CC1(C)C(C(=O)Nc2ccc(-c3cncc(F)c3)cn2)C1(C)C` [Compound E184]: 0.0708 µM; for `Cn1cc(-c2ccc(NC(=O)C3C(C)(C)C3(C)C)nc2)cn1` [Compound E185]: 0.0933 µM; for `CC1(C)C(C(=O)Nc2ccc(C3CCOC3)cn2)C1(C)C` (centres unmarked) [Compound E186]: 0.186 µM.
The figure for `CC1(C)C(C(=O)Nc2ccc(C3=COCC3)cn2)C1(C)C` [Compound E187] is 0.0145 µM.
Turning to `CC1(C)CC1C(=O)Nc1ccc(-c2cc(F)cc(C#N)c2)cn1` (centres unmarked) [Compound E188], the IC50 is 0.0501 µM.
In the case of `Cn1ncc(-c2ccc(NC(=O)C3C(C)(C)C3(C)C)nc2)n1` [Compound E189, 2,2,3,3-tetramethyl-N-[5-(2-methyltriazol-4-yl)-2-pyridyl]cyclopropanecarboxamide], the IC50 was 1.17 µM.
For the compound `Cn1cc(-c2ccc(NC(=O)C3C(C)(C)C3(C)C)nc2)nn1` [Compound E190, 2,2,3,3-tetramethyl-N-[5-(1-methyltriazol-4-yl)-2-pyridyl]cyclopropanecarboxamide], the IC50 is 0.631 µM.
Consider `C[C@H](O)CN(C)C(=O)Nc1ccc(-c2cc(F)cc(F)c2)cn1` [Compound E191, 3-[5-(3,5-difluorophenyl)-2-pyridyl]-1-[(2S)-2-hydroxypropyl]-1-methyl-urea], for which the IC50 was 2.51 µM.
`CCN(C[C@@H](O)C(F)(F)F)C(=O)Nc1ccc(-c2cc(F)cc(C#N)c2)cn1` [Compound E192]: the IC50 was 1.2 µM.
The figure for `CN(C)C(=O)Nc1ccc(-c2cc(F)cc(F)c2)cn1` [Compound E193] is 6.31 µM; for `CCN(C[C@@H](O)C(F)(F)F)C(=O)Nc1ccc(-c2cc(F)cc(F)c2)cn1` [Compound E194] it is 0.214 µM.
Take `CCN(C[C@H](C)O)C(=O)Nc1ccc(-c2ccccc2)cn1` [Compound E195]: the IC50 was 5.01 µM.
Consider `CCN(C[C@@H](O)C(F)(F)F)C(=O)Nc1ccc(F)cn1` [Compound E196], for which the IC50 was 0.851 µM.
The same measure for `CCN(C[C@@H](O)C(F)(F)F)C(=O)Nc1ccc(-c2ncco2)cn1` [Compound E197, 1-ethyl-3-(5-oxazol-2-yl-2-pyridyl)-1-[(2R)-3,3,3-trifluoro-2-hydroxy-propyl]urea]: 3.09 µM.
Turning to `CC1(C)C(C(=O)Nc2ccc(-c3ncco3)cn2)C1(C)C` [Compound E198, 2,2,3,3-tetramethyl-N-(5-oxazol-2-yl-2-pyridyl)cyclopropanecarboxamide], the IC50 is 0.0339 µM.
Regarding `CC1(C)C(C(=O)Nc2ccc(-n3cccn3)cn2)C1(C)C` [Compound E199, 2,2,3,3-tetramethyl-N-(5-pyrazol-1-yl-2-pyridyl)cyclopropanecarboxamide], the IC50 is 0.0339 µM.
Take `CC1(C)C(C(=O)Nc2ccc(I)cn2)C1(C)C` [Compound E200, N-(5-iodo-2-pyridyl)-2,2,3,3-tetramethyl-cyclopropanecarboxamide]: the IC50 is 0.0148 µM.
As for `CN(C)c1ccc(NC(=O)C2C(C)(C)C2(C)C)nc1` [Compound E201, N-[5-(dimethylamino)-2-pyridyl]-2,2,3,3-tetramethyl-cyclopropanecarboxamide], the IC50 was 0.162 µM.
As for `CC(C)C(=O)Nc1ccc(Br)cn1` [Compound E202], the IC50 was 6.31 µM.
For the compound `CC1(C)C(C(=O)Nc2cc(C(F)(F)F)ccn2)C1(C)C` [Compound E203], the IC50 is 1.58 µM.
As for `CC1(C)C(C(=O)Nc2ccc(Cl)cn2)C1(C)C` [Compound E204], the IC50 is 0.00158 µM.
On to `CC1(C)C(C(=O)Nc2ccc(C(F)(F)F)cn2)C1(C)C` [Compound E205], for which the IC50 was 0.501 µM.
Turning to `CC1(C)C(C(=O)Nc2ccc(C#N)cn2)C1(C)C` [Compound E206], the IC50 is 0.251 µM.
The same measure for `CC1(C)C(C(=O)Nc2cc(C#N)ccn2)C1(C)C` [Compound E207]: 3.16 µM; for `CC1(C)CC1C(=O)Nc1cc(Cl)ccn1` (centres unmarked) [Compound E208]: 3.16 µM; for `C[C@H](C(=O)Nc1ccccn1)c1ccccc1` [Compound E209]: 2.51 µM.
As to `C[C@@H](C(=O)Nc1ccccn1)c1ccccc1` [Compound E210], the IC50 was 2 µM.
As to `CC1(C)C(C(=O)Nc2ccc(F)cn2)C1(C)C` [Compound E211], the IC50 is 0.00126 µM.
Turning to `COc1ccc(NC(=O)C2C(C)(C)C2(C)C)nc1` [Compound E212], the IC50 is 0.02 µM.
Take `Cc1cnc(NC(=O)C2C(C)(C)C2(C)C)cn1` [Compound E213]: the IC50 was 1.58 µM.
With `CC1(C)C(C(=O)Nc2cnc(Cl)cn2)C1(C)C` [Compound E214], the IC50 is 0.1 µM.
The figure for `COc1cnc(NC(=O)C2C(C)(C)C2(C)C)cn1` [Compound E215] is 0.2 µM.
With `CC1(C)C(C(=O)Nc2cc3c(cn2)OCCO3)C1(C)C` [Compound E216], the IC50 is 0.331 µM.
In the case of `CC(C)C(=O)Nc1cnc(Oc2ccccc2)cn1` [Compound E217, 2-methyl-N-(5-phenoxypyrazin-2-yl)propanamide], the IC50 was 7.94 µM.
Consider `CC(C)C(=O)Nc1cnc(Oc2cc(F)cc(F)c2)cn1` [Compound E218], for which the IC50 was 0.316 µM.
Regarding `CC1(C)CC1C(=O)Nc1cnc(Oc2cc(F)cc(F)c2)cn1` (centres unmarked) [Compound E219], the IC50 is 0.0251 µM.
On to `CC1(C)C(C(=O)Nc2cnc(Oc3cc(F)cc(F)c3)cn2)C1(C)C` [Compound E220], for which the IC50 was 0.00158 µM.
On to `Cn1cc(Oc2cnc(NC(=O)C3C(C)(C)C3(C)C)cn2)cn1` [Compound E221], for which the IC50 was 0.0288 µM.
For the compound `CC1(C)C(C(=O)Nc2cnc(Oc3cncc(F)c3)cn2)C1(C)C` [Compound E222], the IC50 was 0.0126 µM.
In the case of `CC1(C)C(C(=O)Nc2cnc(Oc3cc(F)cc(C#N)c3)cn2)C1(C)C` [Compound E223], the IC50 was 0.0316 µM.
Regarding `CC1(C)C(C(=O)Nc2cnc(Oc3ccc(F)c(F)c3)cn2)C1(C)C` [Compound E224], the IC50 was 0.00398 µM.
On to `CC1(C)CC1C(=O)Nc1cnc(Oc2ccc(F)c(F)c2)cn1` (centres unmarked) [Compound E225], for which the IC50 is 0.0631 µM.
Turning to `CC1(C)CC1C(=O)Nc1cnc(-c2cc(F)ccc2F)cn1` (centres unmarked) [Compound E226, N-[5-(2,5-difluorophenyl)pyrazin-2-yl]-2,2-dimethyl-cyclopropanecarboxamide], the IC50 is 0.0347 µM.
Turning to `CC1(C)C(C(=O)Nc2cnc(-c3cc(F)cc(F)c3)cn2)C1(C)C` [Compound E227], the IC50 is 0.0339 µM.
Consider `CC1(C)CC1C(=O)Nc1cnc(-c2cc(F)cc(F)c2)cn1` (centres unmarked) [Compound E228, N-[5-(3,5-difluorophenyl)pyrazin-2-yl]-2,2-dimethyl-cyclopropanecarboxamide], for which the IC50 was 0.0955 µM.
Take `CC1(C)CC1C(=O)Nc1cnc(-c2cccc(F)c2F)cn1` (centres unmarked) [Compound E229]: the IC50 was 6.61 µM.
With `CC1(C)CC1C(=O)Nc1cnc(-c2cc(F)cc(C#N)c2)cn1` (centres unmarked) [Compound E230], the IC50 is 0.288 µM.
The same measure for `CC1(C)C(C(=O)Nc2cnc(N3CCCC3)cn2)C1(C)C` [Compound E233, 2,2,3,3-tetramethyl-N-(5-pyrrolidin-1-ylpyrazin-2-yl)cyclopropanecarboxamide]: 0.331 µM; for `CC(C)N(C)C(=O)Nc1cnc(Oc2cc(F)cc(F)c2)cn1` [Compound E234, 3-[5-(3,5-difluorophenoxy)pyrazin-2-yl]-1-isopropyl-1-methyl-urea]: 0.631 µM; for `CCN(C[C@H](C)O)C(=O)Nc1cnc(Oc2cc(F)cc(F)c2)cn1` [Compound E235]: 1.41 µM.
Take `CCN(C[C@@H](O)C(F)(F)F)C(=O)Nc1cnc(Oc2cc(F)cc(F)c2)cn1` [Compound E236]: the IC50 is 0.0316 µM.
With `CCN(C[C@@H](O)C(F)(F)F)C(=O)Nc1cnc(-c2cc(F)ccc2F)cn1` [Compound E237], the IC50 is 0.603 µM.
`CN(C[C@@](C)(O)C(F)(F)F)C(=O)Nc1cnc(Oc2cc(F)cc(F)c2)cn1` [Compound E238]: the IC50 was 0.0457 µM.
As to `CCN(C[C@@H](O)C(F)(F)F)C(=O)Nc1cnc(Oc2cccc(F)c2F)cn1` [Compound E239], the IC50 was 0.00661 µM.
The figure for `CCN(C[C@@H](O)C(F)(F)F)C(=O)Nc1cnc(Oc2ccc(F)c(F)c2)cn1` [Compound E240] is 0.11 µM; for `CCN(C[C@@H](O)C(F)(F)F)C(=O)Nc1cnc(Oc2cc(F)ccc2F)cn1` [Compound E241] it is 0.0017 µM; for `CCN(C[C@@H](O)C(F)(F)F)C(=O)Nc1cnc(Oc2cc(F)cc(F)c2)c(C)n1` [Compound E242] it is 7.41 µM.
`CN(C[C@@H](O)C(F)(F)F)C(=O)Nc1cnc(Oc2cccc(F)c2F)cn1` [Compound E243]: the IC50 is 0.0589 µM.
The same measure for `CCN(C[C@@H](O)C(F)(F)F)C(=O)Nc1cnc(Oc2c(F)cccc2F)cn1` [Compound E244]: 0.0269 µM.
As to `CN(C[C@@H](O)C(F)(F)F)C(=O)Nc1cnc(Oc2cc(F)ccc2F)cn1` [Compound E245], the IC50 is 0.00851 µM.
On to `CCN(C[C@@H](O)C(F)(F)F)C(=O)Nc1cnc(Oc2cccc(C#N)c2F)cn1` [Compound E246], for which the IC50 was 2.14 µM.
On to `CCN(C[C@@H](O)C(F)(F)F)C(=O)Nc1cnc(Oc2cccc(F)c2)cn1` [Compound E247], for which the IC50 was 0.302 µM.

The values above are taken from US20230027929A1, “MrgprX2 Antagonists and Uses Thereof” (Dermira, Inc., priority 2019, published 2023).
